Values after ≈ are worked out from the molar mass of the structure shown. Where two headings read alike, the source gives them in different places. Ends that are not written are not given here.
Columns and labels:
[1] = system: Escherichia coli MG1655; type: cell-based
Protocol: (§1) Escherichia coli MG1655 was grown in Luria-Bertani (LB) broth at 37°C with aeration at 220 rpm in 50-ml tubes. Two hundred microliters of overnight culture was resuspended into 15 ml fresh LB broth, cultured under the same conditions for an additional 2 h, and then used for subsequent assays. Mueller-Hinton (MH) broth was used for the assay of MICs and time-killing curves.
According to a standard protocol ([35]), stock solutions of AMPs were diluted in MH broth and then diluted in 96-well plates with a 2-fold gradient, that is, from 0.25 μg/ml to 128 μg/ml. All the gradients of antibiotics were from 0.02 μg/ml to 50 μg/ml, except that the gradient of ciprofloxacin was from 0.002 μg/ml to 1 μg/ml. Approximately 5 × 10^5 log-phase bacteria were added to each well. A positive control containing MH broth and bacteria and a negative control containing only MH broth were included in each plate, and plates were incubated at 37°C overnight.

[2] = system: Escherichia coli MG1655; assay: Killing curves fitted to the Hill function (pharmacodynamic parameters); type: cell-based; conditions: brackets = 95% confidence interval
Protocol: as §1
Thus, Loewe additivity would result in a MIC of any one combination equal to the MIC of the individual drugs (see equations 5 and 6). Thus, 21 two-AMP combinations and 20 three-AMP combinations were generated. An AMP(s) was diluted, starting with 100× MIC, in a 96-well plate to form a 2-fold gradient of concentrations, and 2 × 10^6 log-phase bacteria were added to a total volume of 100 μl. The plates were incubated at 37°C. Killing was assessed within 1 h, as killing by AMPs is very fast ([36], [37]). Ten microliters of a mixture of AMPs and bacteria was taken out every 20 min and then immediately diluted in saline solution and plated on the solid agar plates. These solid agar plates were transferred into a 37°C incubator and cultured overnight for CFU determination. The limit of detection in our system is 100 CFUs.
To model the killing curve, the relationship between the concentration of AMP(s) and the killing and/or growth rate of exposed bacteria, we used a Hill function ([26]): (1) μ(a)=Emax (a/EC50)^κ/1+(a/EC50)^κ Here, μ(a) is the killing rate at a given concentration of AMP(s); a is a given concentration; Emax is the maximal killing rate of the given AMP(s). κ is the Hill coefficient. We then defined growth rate ψ(a) as follows: (2) ψ(a)=ψmax −μ(a) Here, ψmax is the maximal growth rate of bacteria without AMP(s). The maximum effect of AMP(s) is defined by (3) Emax =ψmax −ψmin Thus, the effect of AMP(s) in a given concentration, μ(a), can be rewritten as (4) μ(a)=(ψmax −ψmin )(a/zMIC)^κ/(a/zMIC)^κ−ψmin /ψmax zMIC is the estimated MIC. Growth rate and killing rate of bacteria are estimated from the time-kill curves as the change of CFU over time by using generalized linear regression. […]

[3] = E. coli MG1655, MH broth, 96-well plates, 2-fold gradient 0.25 to 128 μg/ml, approx. 5 × 10^5 log-phase bacteria per well, 37°C overnight

Compound	MIC [1, 3]	other results
FKRIVQRIKDFLR [LL, LL 17-29]		MIC ([1]; MG1655, 2 h): 16 µg/mL
CC[C@H](C)[C@H](N)C(=O)N[C@@H](CC(C)C)C(=O)N1CCC[C@H]1C(=O)N[C@@H](Cc1c[nH]c2ccccc12)C(=O)N[C@@H](CCCCN)C(=O)N[C@@H](Cc1c[nH]c2ccccc12)C(=O)N1CCC[C@H]1C(=O)N[C@@H](Cc1c[nH]c2ccccc12)C(=O)N[C@@H](Cc1c[nH]c2ccccc12)C(=O)N1CCC[C@H]1C(=O)N[C@@H](Cc1c[nH]c2ccccc12)C(=O)N[C@@H](CCCNC(=N)N)C(=O)N[C@@H](CCCNC(=N)N)C(N)=O [Ind, Indolicidin]	4 µg/mL (≈ 2.1 µM)	
KWKLFKKIEKVGQNIRDGIIKAGPAVAVVGQATQIAK-NH2 [Cec, Cecropin A]	1 µg/mL	κ (lower,upper) ([2]; Hill coefficient (steepness of pharmacodynamic curve), Hill function fit (MCMC) of time-kill data, E. coli MG1655, 37°C, within 1 h): 6.02(5.17,6.84); zMIC (lower,upper) ([2]; estimated MIC from Hill function fit (MCMC) of time-kill data, 2-fold gradient from 100× MIC, 2 × 10^6 log-phase bacteria in 100 μl, 37°C, CFU every 20 min within 1 h, combinations 1:1 or 1:1:1 by volume): 0.32(0.28,0.37) times of original MIC; ψmin (lower,upper) ([2]; minimal growth rate of bacteria, Hill function fit (MCMC) of time-kill data, E. coli MG1655, 37°C, within 1 h): -5.83(-5.89,-5.77)
GIGKFLKKAKKFGKAFVKILKK-NH2 [Pex, pexiganan]	2 µg/mL	
GNNRPVYIPQPRPPHPRL [Api, Apidaecin IB]	4 µg/mL	

From article PMC4775937, “Combination Effects of Antimicrobial Peptides” (Antimicrobial Agents and Chemotherapy, 2016)
